According to ChEMBL document CHEMBL3862012, “Methylene versus carbonyl bridge in the structure of new tubulin polymerization inhibitors with tricyclic A-rings” (Bioorg Med Chem, 2016):

Experiment: Cytotoxicity against human K562 cells assessed as growth inhibition at 10 uM after 48 hrs by SRB assay relative to control
Type: functional
Details: K562, 48 h, read-out: GI

SMILES	inhibition of growth at 10 µM [%]
COc1ccc(CN2c3ccccc3Sc3ccccc32)c(F)c1	91

Experiment: Cytotoxicity against human OVCAR5 cells assessed as growth inhibition after 48 hrs by SRB assay
Type: functional
Details: OVCAR-5, 48 h

SMILES	GI50 [nM]
COc1ccc(CN2c3ccccc3Sc3ccccc32)c(F)c1	4390

Experiment: Cytotoxicity against human LOXIMVI cells assessed as growth inhibition at 10 uM after 48 hrs by SRB assay relative to control
Type: functional
Details: LOX IMVI, read-out: GI

SMILES	inhibition of growth at 10 µM [%]
COc1ccc(CN2c3ccccc3Oc3ccccc32)cc1O	61
COc1ccc(CN2c3ccccc3Sc3ccccc32)c(F)c1	47
COc1ccc(CN2c3ccccc3Oc3ccccc32)cc1F	41

Experiment: Cytotoxicity against human HCT116 cells assessed as growth inhibition after 48 hrs by SRB assay
Type: functional
Details: HCT-116, 48 h

SMILES	GI50 [nM]
COc1ccc(CN2c3ccccc3Sc3ccccc32)c(F)c1	40

Experiment: Cytotoxicity against human RPMI8226 cells assessed as growth inhibition at 10 uM after 48 hrs by SRB assay relative to control
Type: functional
Details: RPMI-8226, 48 h, read-out: GI

SMILES	inhibition of growth at 10 µM [%]
COc1ccc(CN2c3ccccc3Oc3ccccc32)cc1O	86
COc1ccc(CN2c3ccccc3Sc3ccccc32)c(F)c1	88
COc1ccc(CN2c3ccccc3Oc3ccccc32)cc1F	39

Experiment: Cytotoxicity against human OVCAR4 cells assessed as growth inhibition at 10 uM after 48 hrs by SRB assay relative to control
Type: functional
Details: OVCAR-4, 48 h, read-out: GI

SMILES	inhibition of growth at 10 µM [%]
COc1ccc(CN2c3ccccc3Oc3ccccc32)cc1O	45
COc1ccc(CN2c3ccccc3Sc3ccccc32)c(F)c1	38
COc1ccc(CN2c3ccccc3Oc3ccccc32)cc1F	28

Experiment: Cytotoxicity against human SF268 cells assessed as growth inhibition at 10 uM after 48 hrs by SRB assay relative to control
Type: functional
Details: SF-268, 48 h, read-out: GI

SMILES	inhibition of growth at 10 µM [%]
COc1ccc(CN2c3ccccc3Oc3ccccc32)cc1O	43
COc1ccc(CN2c3ccccc3Sc3ccccc32)c(F)c1	48
COc1ccc(CN2c3ccccc3Oc3ccccc32)cc1F	15

Experiment: Cytotoxicity against human MCF7 cells assessed as growth inhibition after 48 hrs by SRB assay
Type: functional
Details: MCF7, 48 h

SMILES	GI50 [nM]
COc1ccc(CN2c3ccccc3Sc3ccccc32)c(F)c1	33

Experiment: Cytotoxicity against human Hs 578T cells assessed as growth inhibition at 10 uM after 48 hrs by SRB assay relative to control
Type: functional
Details: read-out: GI

SMILES	inhibition of growth at 10 µM [%]
COc1ccc(CN2c3ccccc3Oc3ccccc32)cc1O	69
COc1ccc(CN2c3ccccc3Sc3ccccc32)c(F)c1	78
COc1ccc(CN2c3ccccc3Oc3ccccc32)cc1F	38

Experiment: Cytotoxicity against human ACHN cells assessed as growth inhibition at 10 uM after 48 hrs by SRB assay relative to control
Type: functional
Details: read-out: GI

SMILES	inhibition of growth at 10 µM [%]
COc1ccc(CN2c3ccccc3Oc3ccccc32)cc1O	64
COc1ccc(CN2c3ccccc3Sc3ccccc32)c(F)c1	57
COc1ccc(CN2c3ccccc3Oc3ccccc32)cc1F	19

Experiment: Cytotoxicity against human HCT15 cells assessed as growth inhibition after 48 hrs by SRB assay
Type: functional
Details: HCT-15, 48 h

SMILES	GI50 [nM]
COc1ccc(CN2c3ccccc3Sc3ccccc32)c(F)c1	38

Experiment: Cytotoxicity against human COLO205 cells assessed as growth inhibition at 10 uM after 48 hrs by SRB assay relative to control
Type: functional
Details: COLO 205, 48 h, read-out: GI

SMILES	inhibition of growth at 10 µM [%]
COc1ccc(CN2c3ccccc3Oc3ccccc32)cc1O	9
COc1ccc(CN2c3ccccc3Sc3ccccc32)c(F)c1	88
COc1ccc(CN2c3ccccc3Oc3ccccc32)cc1F	58

Experiment: Cytotoxicity against human MDA-MB-435 cells assessed as growth inhibition after 48 hrs by SRB assay
Type: functional
Details: MDA-MB-435, 48 h

SMILES	GI50 [nM]
COc1ccc(CN2c3ccccc3Sc3ccccc32)c(F)c1	25

Experiment: Cytotoxicity against human OVCAR8 cells assessed as growth inhibition at 10 uM after 48 hrs by SRB assay relative to control
Type: functional
Details: OVCAR-8, 48 h, read-out: GI

SMILES	inhibition of growth at 10 µM [%]
COc1ccc(CN2c3ccccc3Oc3ccccc32)cc1O	64
COc1ccc(CN2c3ccccc3Oc3ccccc32)cc1F	35

Experiment: Cytotoxicity against human UACC62 cells assessed as growth inhibition at 10 uM after 48 hrs by SRB assay relative to control
Type: functional
Details: UACC-62, 48 h, read-out: GI

SMILES	inhibition of growth at 10 µM [%]
COc1ccc(CN2c3ccccc3Sc3ccccc32)c(F)c1	67

Experiment: Cytotoxicity against human SNB19 cells assessed as growth inhibition at 10 uM after 48 hrs by SRB assay relative to control
Type: functional
Details: SNB-19, 48 h, read-out: GI

SMILES	inhibition of growth at 10 µM [%]
COc1ccc(CN2c3ccccc3Oc3ccccc32)cc1O	65
COc1ccc(CN2c3ccccc3Sc3ccccc32)c(F)c1	59
COc1ccc(CN2c3ccccc3Oc3ccccc32)cc1F	32

Experiment: Cytotoxicity against human UACC257 cells assessed as growth inhibition at 10 uM after 48 hrs by SRB assay relative to control
Type: functional
Details: UACC-257, 48 h, read-out: GI

SMILES	inhibition of growth at 10 µM [%]
COc1ccc(CN2c3ccccc3Oc3ccccc32)cc1O	61
COc1ccc(CN2c3ccccc3Sc3ccccc32)c(F)c1	48
COc1ccc(CN2c3ccccc3Oc3ccccc32)cc1F	41

Experiment: Cytotoxicity against human M14 cells assessed as growth inhibition after 48 hrs by SRB assay
Type: functional
Details: M14, 48 h

SMILES	GI50 [nM]
COc1ccc(CN2c3ccccc3Sc3ccccc32)c(F)c1	38

Experiment: Cytotoxicity against human IGROV1 cells assessed as growth inhibition after 48 hrs by SRB assay
Type: functional
Details: IGROV-1, 48 h

SMILES	GI50 [nM]
COc1ccc(CN2c3ccccc3Sc3ccccc32)c(F)c1	46

Experiment: Cytotoxicity against human SK-MEL-2 cells assessed as growth inhibition at 10 uM after 48 hrs by SRB assay relative to control
Type: functional
Details: SK-MEL-2, 48 h, read-out: GI

SMILES	inhibition of growth at 10 µM [%]
COc1ccc(CN2c3ccccc3Oc3ccccc32)cc1O	100
COc1ccc(CN2c3ccccc3Sc3ccccc32)c(F)c1	70
COc1ccc(CN2c3ccccc3Oc3ccccc32)cc1F	90

Experiment: Cytotoxicity against human HCT15 cells assessed as growth inhibition at 10 uM after 48 hrs by SRB assay relative to control
Type: functional
Details: HCT-15, 48 h, read-out: GI

SMILES	inhibition of growth at 10 µM [%]
COc1ccc(CN2c3ccccc3Oc3ccccc32)cc1O	72
COc1ccc(CN2c3ccccc3Sc3ccccc32)c(F)c1	65
COc1ccc(CN2c3ccccc3Oc3ccccc32)cc1F	53

Experiment: Cytotoxicity against human SW620 cells assessed as growth inhibition at 10 uM after 48 hrs by SRB assay relative to control
Type: functional
Details: SW-620, 48 h, read-out: GI

SMILES	inhibition of growth at 10 µM [%]
COc1ccc(CN2c3ccccc3Oc3ccccc32)cc1O	73
COc1ccc(CN2c3ccccc3Sc3ccccc32)c(F)c1	90
COc1ccc(CN2c3ccccc3Oc3ccccc32)cc1F	66

Experiment: Cytotoxicity against human IGROV1 cells assessed as growth inhibition at 10 uM after 48 hrs by SRB assay relative to control
Type: functional
Details: IGROV-1, 48 h, read-out: GI

SMILES	inhibition of growth at 10 µM [%]
COc1ccc(CN2c3ccccc3Oc3ccccc32)cc1O	55
COc1ccc(CN2c3ccccc3Sc3ccccc32)c(F)c1	50
COc1ccc(CN2c3ccccc3Oc3ccccc32)cc1F	48

Experiment: Cytotoxicity against human OVCAR5 cells assessed as growth inhibition at 10 uM after 48 hrs by SRB assay relative to control
Type: functional
Details: OVCAR-5, 48 h, read-out: GI

SMILES	inhibition of growth at 10 µM [%]
COc1ccc(CN2c3ccccc3Oc3ccccc32)cc1O	9
COc1ccc(CN2c3ccccc3Sc3ccccc32)c(F)c1	50
COc1ccc(CN2c3ccccc3Oc3ccccc32)cc1F	13

Experiment: Cytotoxicity against human SK-MEL-28 cells assessed as growth inhibition after 48 hrs by SRB assay
Type: functional
Details: SK-MEL-28, 48 h

SMILES	GI50 [nM]
COc1ccc(CN2c3ccccc3Sc3ccccc32)c(F)c1	5050

Experiment: Cytotoxicity against human SW620 cells assessed as growth inhibition after 48 hrs by SRB assay
Type: functional
Details: SW-620, 48 h

SMILES	GI50 [nM]
COc1ccc(CN2c3ccccc3Sc3ccccc32)c(F)c1	36

Experiment: Cytotoxicity against human HT-29 cells assessed as growth inhibition at 10 uM after 48 hrs by SRB assay relative to control
Type: functional
Details: HT-29, 48 h, read-out: GI

SMILES	inhibition of growth at 10 µM [%]
COc1ccc(CN2c3ccccc3Oc3ccccc32)cc1O	17
COc1ccc(CN2c3ccccc3Sc3ccccc32)c(F)c1	96
COc1ccc(CN2c3ccccc3Oc3ccccc32)cc1F	89

Experiment: Cytotoxicity against human NCI-H522 cells assessed as growth inhibition at 10 uM after 48 hrs by SRB assay relative to control
Type: functional
Details: NCI-H522, 48 h, read-out: GI

SMILES	inhibition of growth at 10 µM [%]
COc1ccc(CN2c3ccccc3Oc3ccccc32)cc1O	100
COc1ccc(CN2c3ccccc3Sc3ccccc32)c(F)c1	100
COc1ccc(CN2c3ccccc3Oc3ccccc32)cc1F	100
